According to PubChem BioAssay (NCI):
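Step 1: Grow cells in 96-well plates. Step 2: Expose to compound for 48 hours at 5 concentrations. Step 3: Interpolate endpoints linearly; if unreached, use highest concentration. TGI marks complete inhibition of growth.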

How the values were obtained:
Assay in all cases: growth of human tumour cells (NCI), 48 h
786-0 renal = test system: 786-0 renal
A498 renal = test system: A498 renal
A549 NSCLC = test system: A549 NSCLC
ACHN renal = test system: ACHN renal
CAKI-1 renal = test system: CAKI-1 renal
CCRF-CEM leukemia = test system: CCRF-CEM leukemia
COLO 205 colon = test system: COLO 205 colon
DLD-1 colon = test system: DLD-1 colon
DMS 273 small cell lung = test system: DMS 273 small cell lung
EKVX NSCLC = test system: EKVX NSCLC
HCC-2998 colon = test system: HCC-2998 colon
HCT-116 colon = test system: HCT-116 colon
HCT-15 colon = test system: HCT-15 colon
HL-60(TB) leukemia = test system: HL-60(TB) leukemia
HOP-62 NSCLC = test system: HOP-62 NSCLC
HOP-92 NSCLC = test system: HOP-92 NSCLC
HT29 colon = test system: HT29 colon
IGROV1 ovarian = test system: IGROV1 ovarian
KM12 colon = test system: KM12 colon
KM20L2 colon = test system: KM20L2 colon
LOX IMVI melanoma = test system: LOX IMVI melanoma
LXFL 529 NSCLC = test system: LXFL 529 NSCLC
M14 melanoma = test system: M14 melanoma
M19-MEL melanoma = test system: M19-MEL melanoma
MALME-3M melanoma = test system: MALME-3M melanoma
MOLT-4 leukemia = test system: MOLT-4 leukemia
NCI-H226 lung = test system: NCI-H226 lung
NCI-H23 lung = test system: NCI-H23 lung
NCI-H460 lung = test system: NCI-H460 lung
NCI-H522 lung = test system: NCI-H522 lung
OVCAR-3 ovarian = test system: OVCAR-3 ovarian
OVCAR-4 ovarian = test system: OVCAR-4 ovarian
OVCAR-5 ovarian = test system: OVCAR-5 ovarian
OVCAR-8 ovarian = test system: OVCAR-8 ovarian
RPMI-8226 leukemia = test system: RPMI-8226 leukemia
SF-268 CNS = test system: SF-268 CNS
SF-295 CNS = test system: SF-295 CNS
SF-539 CNS = test system: SF-539 CNS
SK-MEL-2 melanoma = test system: SK-MEL-2 melanoma
SK-MEL-28 melanoma = test system: SK-MEL-28 melanoma
SK-MEL-5 melanoma = test system: SK-MEL-5 melanoma
SK-OV-3 ovarian = test system: SK-OV-3 ovarian
SN12C renal = test system: SN12C renal
SNB-19 CNS = test system: SNB-19 CNS
SNB-75 CNS = test system: SNB-75 CNS
SNB-78 CNS = test system: SNB-78 CNS
SR leukemia = test system: SR leukemia
SW-620 colon = test system: SW-620 colon
TK-10 renal = test system: TK-10 renal
U251 CNS = test system: U251 CNS
UACC-257 melanoma = test system: UACC-257 melanoma
UACC-62 melanoma = test system: UACC-62 melanoma
UO-31 renal = test system: UO-31 renal
XF 498 CNS = test system: XF 498 CNS
DMS 114 small cell lung = test system: DMS 114 small cell lung
K-562 leukemia = test system: K-562 leukemia
RXF 393 renal = test system: RXF 393 renal

SMILES: CN=C(NC#N)N(Cc1ccccc1)Cc1ccccc1
- TGI (786-0 renal): > 100 µM
- TGI (A498 renal): > 100 µM
- TGI (A549 NSCLC): > 100 µM
- TGI (ACHN renal): > 100 µM
- TGI (CAKI-1 renal): > 100 µM
- TGI (CCRF-CEM leukemia): > 100 µM
- TGI (COLO 205 colon): > 100 µM
- TGI (DLD-1 colon): > 100 µM
- TGI (DMS 273 small cell lung): > 100 µM
- TGI (EKVX NSCLC): > 100 µM
- TGI (HCC-2998 colon): > 100 µM
- TGI (HCT-116 colon): > 100 µM
- TGI (HCT-15 colon): > 100 µM
- TGI (HL-60(TB) leukemia): > 100 µM
- TGI (HOP-62 NSCLC): > 100 µM
- TGI (HOP-92 NSCLC): > 100 µM
- TGI (HT29 colon): > 100 µM
- TGI (IGROV1 ovarian): > 100 µM
- TGI (KM12 colon): > 100 µM
- TGI (KM20L2 colon): > 100 µM
- TGI (LOX IMVI melanoma): > 100 µM
- TGI (LXFL 529 NSCLC): > 100 µM
- TGI (M14 melanoma): > 100 µM
- TGI (M19-MEL melanoma): > 100 µM
- TGI (MALME-3M melanoma): > 100 µM
- TGI (MOLT-4 leukemia): > 100 µM
- TGI (NCI-H226 lung): > 100 µM
- TGI (NCI-H23 lung): > 100 µM
- TGI (NCI-H460 lung): > 100 µM
- TGI (NCI-H522 lung): > 100 µM
- TGI (OVCAR-3 ovarian): > 100 µM
- TGI (OVCAR-4 ovarian): > 100 µM
- TGI (OVCAR-5 ovarian): > 100 µM
- TGI (OVCAR-8 ovarian): > 100 µM
- TGI (RPMI-8226 leukemia): > 100 µM
- TGI (SF-268 CNS): > 100 µM
- TGI (SF-295 CNS): > 100 µM
- TGI (SF-539 CNS): > 100 µM
- TGI (SK-MEL-2 melanoma): > 100 µM
- TGI (SK-MEL-28 melanoma): > 100 µM
- TGI (SK-MEL-5 melanoma): > 100 µM
- TGI (SK-OV-3 ovarian): > 100 µM
- TGI (SN12C renal): > 100 µM
- TGI (SNB-19 CNS): > 100 µM
- TGI (SNB-75 CNS): > 100 µM
- TGI (SNB-78 CNS): > 100 µM
- TGI (SR leukemia): > 100 µM
- TGI (SW-620 colon): > 100 µM
- TGI (TK-10 renal): > 100 µM
- TGI (U251 CNS): > 100 µM
- TGI (UACC-257 melanoma): > 100 µM
- TGI (UACC-62 melanoma): > 100 µM
- TGI (UO-31 renal): > 100 µM
- TGI (XF 498 CNS): > 100 µM

SMILES: CCOC(=O)Cn1c(=O)n(C)c(=O)c2[nH]cnc21
- TGI (786-0 renal): > 100 µM
- TGI (A498 renal): > 100 µM
- TGI (A549 NSCLC): > 100 µM
- TGI (ACHN renal): > 100 µM
- TGI (CAKI-1 renal): > 100 µM
- TGI (CCRF-CEM leukemia): > 100 µM
- TGI (COLO 205 colon): > 100 µM
- TGI (DLD-1 colon): > 100 µM
- TGI (DMS 114 small cell lung): > 100 µM
- TGI (DMS 273 small cell lung): > 100 µM
- TGI (EKVX NSCLC): > 100 µM
- TGI (HCT-116 colon): > 100 µM
- TGI (HCT-15 colon): > 100 µM
- TGI (HOP-62 NSCLC): > 100 µM
- TGI (HOP-92 NSCLC): > 100 µM
- TGI (HT29 colon): > 100 µM
- TGI (IGROV1 ovarian): > 100 µM
- TGI (K-562 leukemia): > 100 µM
- TGI (KM12 colon): > 100 µM
- TGI (LXFL 529 NSCLC): > 100 µM
- TGI (M14 melanoma): > 100 µM
- TGI (M19-MEL melanoma): > 100 µM
- TGI (MALME-3M melanoma): > 100 µM
- TGI (MOLT-4 leukemia): > 100 µM
- TGI (NCI-H23 lung): > 100 µM
- TGI (NCI-H460 lung): > 100 µM
- TGI (NCI-H522 lung): > 100 µM
- TGI (OVCAR-3 ovarian): > 100 µM
- TGI (OVCAR-8 ovarian): > 100 µM
- TGI (RPMI-8226 leukemia): > 100 µM
- TGI (SF-268 CNS): > 100 µM
- TGI (SF-539 CNS): > 100 µM
- TGI (SK-MEL-2 melanoma): > 100 µM
- TGI (SK-MEL-28 melanoma): > 100 µM
- TGI (SK-MEL-5 melanoma): > 100 µM
- TGI (SK-OV-3 ovarian): > 100 µM
- TGI (SN12C renal): > 100 µM
- TGI (SNB-19 CNS): > 100 µM
- TGI (SNB-75 CNS): > 100 µM
- TGI (SNB-78 CNS): > 100 µM
- TGI (SR leukemia): > 100 µM
- TGI (SW-620 colon): > 100 µM
- TGI (TK-10 renal): > 100 µM
- TGI (U251 CNS): > 100 µM
- TGI (UACC-62 melanoma): > 100 µM
- TGI (UO-31 renal): > 100 µM
- TGI (XF 498 CNS): > 100 µM

SMILES: CCOC(=O)c1oc2c(OC)cc(Cl)c3c2c1CCC3
- TGI (786-0 renal): > 100 µM
- TGI (A498 renal): > 100 µM
- TGI (A549 NSCLC): > 100 µM
- TGI (ACHN renal): > 100 µM
- TGI (CCRF-CEM leukemia): > 100 µM
- TGI (COLO 205 colon): > 100 µM
- TGI (DLD-1 colon): > 100 µM
- TGI (DMS 114 small cell lung): > 100 µM
- TGI (DMS 273 small cell lung): > 100 µM
- TGI (EKVX NSCLC): > 100 µM
- TGI (HCC-2998 colon): > 100 µM
- TGI (HCT-116 colon): > 100 µM
- TGI (HCT-15 colon): > 100 µM
- TGI (HL-60(TB) leukemia): > 100 µM
- TGI (HOP-92 NSCLC): 63.8 µM
- TGI (HT29 colon): > 100 µM
- TGI (IGROV1 ovarian): > 100 µM
- TGI (K-562 leukemia): > 100 µM
- TGI (KM12 colon): > 100 µM
- TGI (LOX IMVI melanoma): > 100 µM
- TGI (LXFL 529 NSCLC): > 100 µM
- TGI (M14 melanoma): > 100 µM
- TGI (M19-MEL melanoma): > 100 µM
- TGI (MALME-3M melanoma): > 100 µM
- TGI (MOLT-4 leukemia): > 100 µM
- TGI (NCI-H226 lung): 73.3 µM
- TGI (NCI-H23 lung): > 100 µM
- TGI (NCI-H460 lung): > 100 µM
- TGI (NCI-H522 lung): > 100 µM
- TGI (OVCAR-3 ovarian): 28.3 µM
- TGI (OVCAR-4 ovarian): > 100 µM
- TGI (OVCAR-5 ovarian): > 100 µM
- TGI (OVCAR-8 ovarian): > 100 µM
- TGI (RPMI-8226 leukemia): > 100 µM
- TGI (RXF 393 renal): 65.3 µM
- TGI (SF-268 CNS): > 100 µM
- TGI (SF-295 CNS): > 100 µM
- TGI (SF-539 CNS): > 100 µM
- TGI (SK-MEL-2 melanoma): > 100 µM
- TGI (SK-MEL-28 melanoma): > 100 µM
- TGI (SK-MEL-5 melanoma): > 100 µM
- TGI (SK-OV-3 ovarian): > 100 µM
- TGI (SN12C renal): > 100 µM
- TGI (SNB-19 CNS): 97.6 µM
- TGI (SNB-75 CNS): 76.5 µM
- TGI (SNB-78 CNS): > 100 µM
- TGI (SR leukemia): > 100 µM
- TGI (SW-620 colon): > 100 µM
- TGI (TK-10 renal): 79.3 µM
- TGI (U251 CNS): > 100 µM
- TGI (UACC-257 melanoma): > 100 µM
- TGI (UACC-62 melanoma): > 100 µM
- TGI (UO-31 renal): 65.1 µM
- TGI (XF 498 CNS): 80.6 µM
